For the assay, the system named is Human prostate cancer cell lines (PC-3 cells). Kind of assay: Measurement of cell death-inducing activity (Test Example 1). To be noted: PC-3, 48 h, 48 hours after addition, tested at 10, 1, 0.1, 0.025 and 0.00625 μmol/L, qualitative evaluation of 10 fields, read-out: Concentration showing the cell death-inducing activity (cell death-inducing rate not less than 40%). Format: cell-based. Summed up:
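PC-3 cells seeded at 1×10^5 cells/well and grown 48 h at 37 °C, 5% CO2, then exposed to compound at 10, 1, 0.1, 0.025 and 0.00625 μmol/L (DMSO control) for a further 48 h. Activity was called where cell death-inducing rate was not less than 40%.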

In patent US9200008B2 (ASKA PHARMACEUTICAL CO., LTD., priority 2010, dated 2015) one finds minimal effective concentration data, which are given here for 61 molecules.

As for `COc1ccc(/C=N/NC(=O)c2sc(-c3ccc(Cl)cc3OC)nc2C)cc1` [Example 23-79], the minimal effective concentration worked out at 0.1 µM.

With `CCn1nc(-c2ccc(C)cc2C)cc1COC(=O)Nc1ccc2c(cnn2C)c1` [Example 13-132], the minimal effective concentration worked out at 1 µM. Then `CCN(Cc1ccc(OC)cc1)NC(=O)c1sc(-c2ccc(Cl)cc2C)nc1C` [Example 16-15], with 1 µM. With `COc1cc(Cl)ccc1-c1cc(NC(=O)OCc2ccc3c(c2)nc2n3CCCC2)n(C)n1` [Example 9-267] the figure was 0.025 µM.

For `CCn1nnc2cc(COC(=O)Nc3sc(-c4ccc(C)cc4C)nc3C)ccc21` [Example 9-26], the minimal effective concentration amounted to 0.025 µM. With `COc1cc(F)ccc1-c1nc(C)c(NC(=O)OCc2ccc3c(c2)nnn3C)s1` [Example 9-14] the figure was 0.025 µM. Then `COc1cccc(/C=N/NC(=O)c2sc(-c3ccc(Cl)cc3)nc2C)c1O` [Example 23-60], with 10 µM; and `CCCn1cnc2cc(COC(=O)Nc3sc(-c4ccc(C)cc4C)nc3C)ccc21` [Example 9-69], with 1 µM.

With `Cc1cc(/C=N/NC(=O)c2cnc(-c3ccccc3C)s2)ccc1O` [Example 23-51], the minimal effective concentration was 10 µM. Turning to `COc1cc(Cl)ccc1-c1cc(NC(=O)OCc2ccc3c(c2)ncn3C)n(C)c1` [Example 10-2, [4-(4-Chloro-2-methoxyphenyl)-1-methyl-1H-pyrrol-2-yl]carbamic acid 1-methyl-1H-benzimidazol-5-ylmethyl ester], the minimal effective concentration stood at 1 µM.

As to `COc1cccc(-c2nc(C)c(C(=O)N/N=C/c3cc(C)c(O)c(C)c3)s2)c1C` [Example 23-131], the minimal effective concentration is 1 µM.

For the molecule `CCn1nc(-c2ccc(C)cc2OC)cc1NC(=O)OCc1ccc2c(c1)nc1n2CCC1` [Example 9-262], the minimal effective concentration was 0.025 µM. Then `CCn1nc(-c2ccccc2OC)cc1NC(=O)OCc1ccc2nn(C)cc2c1` [Example 9-289], with 1 µM; and `CCc1nc(-c2ccc(F)cc2C)sc1NC(=O)OCc1ccc2c(c1)ncn2C` [Example 9-163], with 0.025 µM. Then `CCn1nc(-c2ccc(C)cc2C)cc1COC(=O)Nc1ccc2c(c1)nc1n2CCOC1` [Example 13-104], with 0.025 µM; and `CCc1nc(-c2ccc(Cl)cc2OC)sc1NC(=O)OCc1ccc2nn(CC)cc2c1` [Example 9-176], with 0.025 µM. Then `Cc1ccc(-c2cc(COC(=O)Nc3ccc4c(c3)nc3n4CCCC3)n(C)n2)c(C)c1` [Example 13-122], with 0.025 µM; and `COc1ccc(/C=N/NC(=O)c2sc(-c3ccc(Cl)cc3)nc2C2CC2)cc1O` [Example 23-101], with 10 µM; and `Cc1cc(F)ccc1-c1nc(C)c(NC(=O)OCc2ccc3c(c2)nnn3C)s1` [Example 9-19], with 0.025 µM. Take `CCCn1cnc2cc(COC(=O)Nc3sc(-c4ccc(C)cc4OC)nc3C)ccc21` [Example 9-68]: the minimal effective concentration is 0.1 µM. With `COc1ccc(/C=N/NC(=O)c2sc(-c3cccc(OC)c3OC)nc2C)cc1O` [Example 23-24] the figure was 10 µM; with `Cc1ccc(/C=N/NC(=O)c2sc(-c3ccc(Cl)cc3)nc2C)cc1O` [Example 23-35], 10 µM; with `Cc1ccc(-c2cc(NC(=O)OCc3ccc4c(c3)ncn4C)n(C)n2)c(C)c1` [Example 9-233], 0.00625 µM.

As for `CCn1cnc2cc(COC(=O)Nc3sc(-c4ccc(F)cc4C)nc3C)ccc21` [Example 9-63], the minimal effective concentration is 0.00625 µM.

In the case of `COc1ccccc1-c1nc(C)c(NC(=O)OCc2ccc3c(c2)ncn3C)s1` [Example 9-37], the minimal effective concentration amounted to 0.025 µM. In the case of `Cc1ccc(-c2nc(C)c(NC(=O)OCc3ccc4c(c3)nnn4C)s2)c(C)c1` [Example 9-17], the minimal effective concentration came out at 0.025 µM. Then `COc1ccc(/C=N/NC(=O)c2sc(-c3cccc(C)c3C)nc2C)cc1O` [Example 23-22], with 1 µM; and `COc1ccc(CN(C)NC(=O)c2sc(-c3ccccc3C)nc2C)cc1` [Example 16-3], with 1 µM; and `CCc1nc(-c2ccccc2OC)sc1NC(=O)OCc1ccc2nn(CC)cc2c1` [Example 9-367], with 1 µM. With `Cc1nc(-c2ccccc2C(F)(F)F)sc1C(=O)N/N=C/c1ccc(OC(F)F)c(O)c1` [Example 23-118] the figure was 1 µM. With `CCn1nc(-c2ccc(C)cc2OC)cc1NC(=O)OCc1ccc2c(cnn2C)c1` [Example 9-284] the figure was 0.1 µM; with `COc1ccc(CN(C)NC(=O)c2cc(-c3ccc(Cl)cc3OC)ns2)cc1` [Example 19-1, 3-(4-Chloro-2-methoxyphenyl)isothiazole-5-carboxylic acid N′-(4-methoxybenzyl)-N′-methyl hydrazide], 10 µM; with `CCn1nc(-c2ccc(F)cc2OC)cc1NC(=O)OCc1ccc2c(c1)nc1n2CCCC1` [Example 9-266], 1 µM. For the molecule `COc1ccc(/C=N/NC(=O)c2sc(-c3ccc(F)cc3)nc2C)cc1` [Example 23-67], the minimal effective concentration was 1 µM.

For the molecule `CCc1nc(-c2ccc(F)cc2OC)sc1NC(=O)OCc1ccc2c(c1)nc1n2CCCC1` [Example 9-352], the minimal effective concentration is 0.1 µM. Then `CCn1cnc2cc(NC(=O)OCc3cc(-c4ccccc4OC)ns3)ccc21` [Example 47-10], with 10 µM.

Turning to `COc1cc(Cl)ccc1-c1nc(C)c(C(=O)NN(C)Cc2cc(C)c(O)c(C)c2)s1` [Example 17-4, 2-(4-Chloro-2-methoxyphenyl)-4-methylthiazole-5-carboxylic acid N′-(4-hydroxy-3,5-dimethylbenzyl)-N′-methyl hydrazide], the minimal effective concentration stood at 10 µM.

As to `CCn1nnc2cc(COC(=O)Nc3sc(-c4ccc(Cl)cc4C)nc3C)ccc21` [Example 9-28], the minimal effective concentration amounted to 0.025 µM. Then `CCc1nc(-c2ccc(Cl)cc2C)sc1NC(=O)OCc1ccc2c(c1)nc(C)n2C` [Example 9-376], with 0.1 µM; and `COc1cc(C)ccc1-c1nc(C)c(NC(=O)OCc2ccc3c(c2)nc2n3CCSC2)s1` [Example 40-2, [2-(2-Methoxy-4-methylphenyl)-4-methylthiazol-5-yl]carbamic acid 3,4-dihydro-1H-2-thia-4a,9-diazafluoren-7-ylmethyl ester], with 0.025 µM.

With `Cc1ccc(-c2nc(C)c(NC(=O)OCc3ccc4c(c3)nc3n4CCC3)s2)c(C)c1` [Example 9-108], the minimal effective concentration was found to be 0.025 µM.

For the molecule `CCn1nc(-c2ccc(C)cc2OC)cc1NC(=O)OCc1ccc2c(c1)nc1n2CCOC1` [Example 9-250], the minimal effective concentration stood at 0.025 µM. With `C/C(=N\N=C\c1cc(C)c(O)c(C)c1)c1sc(-c2ccc(Cl)cc2)nc1C` [Example 30-1, 4-{[1-[2-(4-Chlorophenyl)-4-methylthiazol-5-yl]ethylidene]hydrazonomethyl}-2,6-dimethyl-phenol] the figure was 10 µM; with `COc1cc(F)ccc1-c1cc(COC(=O)Nc2ccc3c(c2)nc2n3CCC2)n(C)n1` [Example 13-106], 0.00625 µM; with `CCn1ncc2cc(COC(=O)Nc3sc(-c4ccc(Cl)cc4OC)nc3C)ccc21` [Example 9-136], 0.00625 µM. With `COc1ccccc1-c1cc(NC(=O)OCc2ccc3c(c2)nc2n3CCCC2)n(C)n1` [Example 9-263], the minimal effective concentration was 1 µM. As to `CCn1nc(-c2ccc(F)cc2OC)cc1NC(=O)OCc1ccc2c(c1)ncn2C` [Example 9-218], the minimal effective concentration turned out to be 0.025 µM. As to `COc1ccccc1-c1nc(C)c(NC(=O)OCc2ccc3c(c2)nc2n3CCOC2)s1` [Example 9-91], the minimal effective concentration amounted to 0.025 µM. For `Cn1nc(-c2ccc(Cl)cc2Cl)cc1NC(=O)OCc1ccc2c(cnn2C)c1` [Example 9-275], the minimal effective concentration was 1 µM.

With `COc1cc(Cl)ccc1-c1cc(NC(=O)OC(C)c2ccc3c(c2)ncn3C)n(C)n1` (stereo not shown) [Example 9-338], the minimal effective concentration is 10 µM. With `CCc1nc(-c2ccc(C)cc2OC)sc1NC(=O)OCc1ccc2c(c1)nc(C)n2C` [Example 9-374] the figure was 0.1 µM; with `COc1ccc(/C=N/NC(=O)c2sc(-c3cccc(OC)c3C)nc2C)cc1O` [Example 23-130], 1 µM; with `COc1ccc(-c2nc(C)c(C(=O)N/N=C/c3cc(C)c(O)c(C)c3)s2)cc1` [Example 23-104], 1 µM. Then `CCN(Cc1ccc(OC)cc1)NC(=O)c1sc(-c2cccc(C)c2C)nc1C` [Example 16-14], with 10 µM; and `COc1cc(F)ccc1-c1cc(NC(=O)OCc2ccc3c(c2)nc2n3CCC2)n(C)n1` [Example 9-256], with 0.1 µM. For `COc1ccc(/C=N/NC(=O)c2sc(-c3cccc(F)c3)nc2C)cc1` [Example 23-66], the minimal effective concentration is 1 µM.

For the molecule `CCCn1cnc2cc(NC(=O)OCc3sc(-c4ccc(C)cc4C)nc3C)ccc21` [Example 13-19], the minimal effective concentration is 1 µM.

As to `COc1cc(Cl)ccc1-c1cc(NC(=O)OCc2ccc3c(c2)nc(C)n3C)n(C)n1` [Example 9-239], the minimal effective concentration came out at 0.025 µM.

With `CCn1nc(-c2ccc(Cl)cc2OC)cc1COC(=O)Nc1ccc2c(c1)nc1n2CCCC1` [Example 13-119], the minimal effective concentration came out at 0.025 µM. With `Cc1ccc(-c2cc(COC(=O)Nc3ccc4c(c3)ncn4C)nn2C)c(C)c1` [Example 13-141] the figure was 10 µM. With `CCn1c(C)nc2cc(COC(=O)Nc3sc(-c4ccc(Cl)cc4OC)nc3C)ccc21` [Example 9-86] the figure was 0.025 µM.
